Measured values published in patent US20210007360A1, “SOLUTIONS COMPRISING OZONIZED OIL” (priority 2018, published 2021).

How the values were obtained:
[1] = system: patients diagnosed with a cervical disc hernia; experiment: Regional injections of ozone and PRP in cervical disc hernia, VAS pain score; format: in vivo, human; settings: 8 sessions of ozone, 2 sessions of PRP, 66 patients, 9.3 at the beginning
Experimental: Cervical disc and spinal disc hernias are one of the common health issues. In the studies we conduct on 66 patients diagnosed with a cervical disc hernia, the pain score is evaluated according to the VAS in 1 month, 4 months and 1 year after the regional injections of 8 sessions of ozone, 2 sessions of PRP. The pain score was 9.3 at the beginning, 6.9 in the first month, 4.8 in the 4th month and 3.6 at the end of the first year. It is also found in the literature that the regional injections of ozone are so effective. However, to perform these applications, there is a need for a clinic or a hospital where ozone treatment is offered. The dosages of solutions of ozonized oil or ozonides in water in regional applications are also applicable here. Depending on the size of the region, the ozonized oil or ozonide solution of 2-4 mg (2000-4000 ppm), which is made with ozonides comprising 10% ozone may be injected into paravertebral muscles and subcutaneous tissue to be able to benefit from anti-inflammatory and analgesic effects. However, with tissue oxygenation, dissolution of muscle spasm, and increased blood supply to the hernia, a long-acting treatment and shrinking of the hernia is provided.

knees of patients = experiment: Intra-articular ozone and PRP treatment of knees, VAS scores; format: in vivo, human; settings: 8 sessions of ozone and 2 sessions of PRP, 187 knees of 100 patients, baseline 8.5
Text: Ozone gas injection may cause short-term burning and itching. However, this effect is rarely seen in intramuscular injections. For this reason, ozonide solutions comprising local anesthetic should be preferred especially if superficial injection will be performed. […] It is known that it prevents loss of cartilage by increasing oxygenation of the joint cartilage and reduces pain due to the analgesic effect with its anti-inflammatory effect. There are many publications in the literature about this issue. Similarly, in our own research, it was observed that VAS scores decreased from 8.5 to 4 on average as a result of the application of 8 sessions of ozone and 2 sessions of PRP treatment on 187 knees of 100 patients. In these applications, 20 micrograms of ozone are given as 20 ml (cc). That is, 400 micrograms of ozone have been applied. […] It can be applied at most twice a week. In addition, it can be combined with local anesthetic and anti-inflammatory agents. Vitamin E, which becomes popular in experimental studies in recent years, can be applied together with oil solutions and anti-inflammatory drugs. Hyaluronic acid is known to increase cartilage matrix in the intraarticular injection. It is known that better results are obtained with the ozone treatment and hyaluronic acid combinations. […]

[2] = 20° C.; cited from earlier work
[3] = cited from earlier work

O=[O+][O-] [ozone]
VAS pain score at the end of the first year [1]: 3.6 | VAS pain score in the 4th month [1]: 4.8 | VAS pain score in the first month [1]: 6.9 | VAS score after treatment, average (knees of patients): 4 | half life [2]: 40 min

CCCCN1CCCCC1C(=O)Nc1c(C)cccc1C (stereo not shown) [bupivacaine]
duration of local effect ([3]; injection in oil): 72 h

CCN(CC)CC(=O)Nc1c(C)cccc1C [Lidocaine]
duration of effect in the injection zone ([3]; normal injection): up to 2 hours
